From patent US6838414B2, “Substituted aryl sulphonyl(thio)ureas used as herbicides” (Bayer Aktiengesellschaft, priority 1996, dated 2005)

Legend:
Type in all cases: in vivo
Alopecurus [1] = experiment: Pre-emergence test/greenhouse; conditions: after three weeks
Protocol: (§1) To produce a suitable preparation of active compound, 1 part by weight of active compound is mixed with the stated amount of solvent, the stated amount of emulsifier is added and the concentrate is diluted with water to the desired concentration.
(§2) Seeds of the test plants are sown in normal soil. After about 24 hours, the soil is sprayed with the preparation of the active compound. Advantageously, the amount of water per unit area is kept constant. The active compound concentration in the preparation is not important, only the active compound application rate per unit area is critical.
(§3) After three weeks, the degree of damage to the plants is rated in % damage in comparison with the development of the untreated control.
(§4) The figures denote: • 0%=no effect (like untreated control) • 100%=total destruction

Chenopodium = experiment: Pre-emergence test/greenhouse; conditions: after three weeks
Protocol: as §1, §2, §3, §4

Lolium = experiment: Pre-emergence test/greenhouse; conditions: after three weeks
Protocol: as §1, §2, §3, §4

Sorghum = experiment: Pre-emergence test/greenhouse; conditions: after three weeks
Protocol: as §1, §2, §3, §4

Stellaria = experiment: Pre-emergence test/greenhouse; conditions: after three weeks
Protocol: as §1, §2, §3, §4

weeds [2] = experiment: Pre-emergence test (overall statement); conditions: application rates between 30 g and 125 g of a.i. per hectare
Protocol: as §1, §2, §3, §4

Abutilon = experiment: Post-emergence test/greenhouse; conditions: rated after three weeks vs untreated control
Protocol: as §1
(§5) Test plants which have a height of 5-15 cm are sprayed with the preparation of the active compound in such a way as to apply the particular amounts of active compound desired per unit area. The concentration of the spray liquor is chosen so that the amounts of active compound desired in each case are applied in 1000 l of water/ha.
as §3, §4

Alopecurus [3] = experiment: Post-emergence test/greenhouse; conditions: rated after three weeks vs untreated control
Protocol: as §1, §5, §3, §4

Echinochloa = experiment: Post-emergence test/greenhouse; conditions: rated after three weeks vs untreated control
Protocol: as §1, §5, §3, §4

Matricaria = experiment: Post-emergence test/greenhouse; conditions: rated after three weeks vs untreated control
Protocol: as §1, §5, §3, §4

weeds [4] = experiment: Post-emergence test/greenhouse
Protocol: as §1, §5, §3, §4

Amaranthus = experiment: Pre-emergence test/greenhouse; conditions: after three weeks
Protocol: as §1, §2, §3, §4

[5] = application rate 30 g of ai./ha
[6] = application rate 60 g of ai./ha
[7] = application rate 125 g of ai./ha

Compound | Alopecurus, % damage (Alopecurus [1]; 30 g of ai./ha) [%] | Chenopodium, % damage (Chenopodium; 30 g of ai./ha) [%] | Sorghum, % damage (Sorghum; 30 g of ai./ha) [%] | Steltaria, % damage (Stellaria; 30 g of ai./ha) [%] | activity against weeds (weeds [2]) | degree of damage to the plants, Abutilon (Abutilon; [5]) [%] | degree of damage to the plants, Alopecurus (Alopecurus [3]; [5]) [%] | degree of damage to the plants, Echinochloa (Echinochloa; [5]) [%] | degree of damage to the plants, Matricaria (Matricaria; [5]) [%] | activity against weeds (weeds [4]) | further results
CCOc1cccc(C(F)(F)F)c1S(=O)(=O)NC(=O)Nc1nc(C)cc(C)n1 [Example 8] | 100 | 80 | 100 | 90 | very strong activity against weeds | 90 | 80 | 90 | 100 | very strong activity against weeds | Lolium, % damage (Lolium; 30 g of ai./ha): 100%
CCCOc1cccc(C(F)(F)F)c1S(=O)(=O)NC(=O)Nc1nc(OC)nc(OC)n1 [Example 10] | – | – | – | – | very strong activity against weeds | – | – | – | – | – | Alopecurus, % damage (Alopecurus [1]; 60 g of ai./ha): 100%; Amaranthus, % damage (Amaranthus; 60 g of ai./ha): 100%; Chenopodium, % damage (Chenopodium; 60 g of ai./ha): 100%; Lolium, % damage (Lolium; 60 g of ai./ha): 100%; Sorghum, % damage (Sorghum; 60 g of ai./ha): 100%; Steltaria, % damage (Stellaria; 60 g of ai./ha): 100%
CCCOc1cccc(C(F)(F)F)c1S(=O)(=O)NC(=O)Nc1nc(C)cc(C)n1 [Example 11] | – | – | – | – | very strong activity against weeds | – | – | – | – | – | Alopecurus, % damage (Alopecurus [1]; 60 g of ai./ha): 100%; Amaranthus, % damage (Amaranthus; 60 g of ai./ha): 100%; Chenopodium, % damage (Chenopodium; 60 g of ai./ha): 100%; Lolium, % damage (Lolium; 60 g of ai./ha): 100%; Sorghum, % damage (Sorghum; 60 g of ai./ha): 100%; Steltaria, % damage (Stellaria; 60 g of ai./ha): 95%
COc1nc(NC(=O)NS(=O)(=O)c2c(OC(C)C)cccc2C(F)(F)F)nc(OC)n1 [Example 13] | – | – | – | – | very strong activity against weeds | – | – | – | – | – | Alopecurus, % damage (Alopecurus [1]; 60 g of ai./ha): 100%; Amaranthus, % damage (Amaranthus; 60 g of ai./ha): 100%; Chenopodium, % damage (Chenopodium; 60 g of ai./ha): 100%; Lolium, % damage (Lolium; 60 g of ai./ha): 100%; Sorghum, % damage (Sorghum; 60 g of ai./ha): 100%; Steltaria, % damage (Stellaria; 60 g of ai./ha): 100%
Cc1cc(C)nc(NC(=O)NS(=O)(=O)c2c(OC(C)C)cccc2C(F)(F)F)n1 [Example 14] | 100 | 95 | 95 | 95 | very strong activity against weeds | – | – | – | – | – | Lolium, % damage (Lolium; 30 g of ai./ha): 100%
CCOc1cccc(C(F)(F)F)c1S(=O)(=O)NC(=O)Nc1nc(Cl)cc(OC)n1 [Example 16] | 100 | 100 | 80 | 90 | very strong activity against weeds | 100 | 70 | 70 | 100 | very strong activity against weeds | –
CCCOc1cccc(C(F)(F)F)c1S(=O)(=O)NC(=O)Nc1nc(Cl)cc(OC)n1 [Example 17] | – | – | – | – | – | 90 | – | 70 | 95 | very strong activity against weeds | –
COc1cc(OC)nc(NC(=O)NS(=O)(=O)c2c(OC)cccc2C(F)(F)F)n1 [Example 22] | 100 | 100 | 95 | 100 | very strong activity against weeds | 95 | 60 | 80 | 95 | very strong activity against weeds | Amaranthus, % damage (Amaranthus; 30 g of ai./ha): 100%
CCOc1cccc(C(F)(F)F)c1S(=O)(=O)NC(=O)Nc1nc(OC)cc(OC)n1 [Example 23] | – | – | – | – | – | 95 | 60 | 70 | 95 | very strong activity against weeds | –
CCCOc1cccc(C(F)(F)F)c1S(=O)(=O)NC(=O)Nc1nc(OC)cc(OC)n1 [Example 24] | – | – | – | – | – | 95 | 60 | 70 | 95 | very strong activity against weeds | –
COc1cc(OC)nc(NC(=O)NS(=O)(=O)c2c(OC(C)C)cccc2C(F)(F)F)n1 [Example 25] | – | – | – | – | – | 95 | 60 | 70 | 90 | very strong activity against weeds | –
COc1cc(C)nc(NC(=O)NS(=O)(=O)c2c(C)cccc2OC(C)C)n1 [Example 33] | 100 | 70 | 100 | 90 | very strong activity against weeds | – | – | – | – | – | Lolium, % damage (Lolium; 30 g of ai./ha): 95%
C#CCOc1cccc(C)c1S(=O)(=O)NC(=O)Nc1nc(OC)cc(OC)n1 [Example 34] | 100 | 90 | 90 | 90 | very strong activity against weeds | 90 | 60 | 80 | 90 | very strong activity against weeds | –
CCCOc1cccc(C)c1S(=O)(=O)NC(=O)Nc1nc(C)cc(OC)n1 [Example 46] | – | – | – | – | very strong activity against weeds | – | – | – | – | – | Alopecurus, % damage (Alopecurus [1]; 60 g of ai./ha): 100%; Amaranthus, % damage (Amaranthus; 60 g of ai./ha): 90%; Chenopodium, % damage (Chenopodium; 60 g of ai./ha): 100%; Lolium, % damage (Lolium; 60 g of ai./ha): 90%; Sorghum, % damage (Sorghum; 60 g of ai./ha): 100%; Steltaria, % damage (Stellaria; 60 g of ai./ha): 80%
CCOc1cccc(C(C)C)c1S(=O)(=O)NC(=O)Nc1nc(OC)nc(OC)n1 [Example 51] | – | – | – | – | – | – | – | – | – | very strong activity against weeds | degree of damage to the plants, Abutilon (Abutilon; [6]): 100%; degree of damage to the plants, Alopecurus (Alopecurus [3]; [6]): 80%; degree of damage to the plants, Echinochloa (Echinochloa; [6]): 90%; degree of damage to the plants, Matricaria (Matricaria; [6]): 90%
COc1nc(C)nc(NC(=O)NS(=O)(=O)c2c(C)cccc2OC2CCCC2)n1 [Example 56] | – | – | – | – | very strong activity against weeds | – | – | – | – | – | Alopecurus, % damage (Alopecurus [1]; 60 g of ai./ha): 100%; Amaranthus, % damage (Amaranthus; 60 g of ai./ha): 100%; Chenopodium, % damage (Chenopodium; 60 g of ai./ha): 100%; Lolium, % damage (Lolium; 60 g of ai./ha): 100%; Sorghum, % damage (Sorghum; 60 g of ai./ha): 90%; Steltaria, % damage (Stellaria; 60 g of ai./ha): 100%
COc1cc(OC)nc(NC(=O)NS(=O)(=O)c2c(C)cccc2OC(F)F)n1 [Example 65] | – | – | – | – | very strong activity against weeds | – | – | – | – | very strong activity against weeds | Alopecurus, % damage (Alopecurus [1]; 125 g of ai./ha): 95%; Amaranthus, % damage (Amaranthus; 125 g of ai./ha): 95%; Chenopodium, % damage (Chenopodium; 125 g of ai./ha): 95%; Lolium, % damage (Lolium; 125 g of ai./ha): 70%; Steltaria, % damage (Stellaria; 125 g of ai./ha): 95%; degree of damage to the plants, Abutilon (Abutilon; [7]): 100%; degree of damage to the plants, Alopecurus (Alopecurus [3]; [7]): 90%; degree of damage to the plants, Echinochloa (Echinochloa; [7]): 90%; degree of damage to the plants, Matricaria (Matricaria; [7]): 100%
